PubChem BioAssay (NCI)
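Cells were grown in 96-well plates and exposed to each compound for 48 hours at five concentrations; endpoints were interpolated linearly between bracketing concentrations, or set to the highest concentration if not reached. TGI is the concentration that stops growth completely.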

What was measured:
Test in all cases: growth of human tumour cells (NCI), 48 h
[1] = system: MOLT-4 leukemia
[2] = system: OVCAR-5 ovarian
[3] = system: MCF7 breast
[4] = system: HS 578T breast
[5] = system: RXF 393 renal
[6] = system: UACC-257 melanoma
[7] = system: PC-3 prostate
[8] = system: OVCAR-8 ovarian
[9] = system: SK-MEL-28 melanoma
[10] = system: RPMI-8226 leukemia
[11] = system: SNB-19 CNS
[12] = system: SN12C renal
[13] = system: HCT-15 colon
[14] = system: T-47D breast
[15] = system: HCT-116 colon
[16] = system: SK-OV-3 ovarian
[17] = system: HT29 colon
[18] = system: MDA-MB-231 breast
[19] = system: CAKI-1 renal
[20] = system: SNB-75 CNS

| SMILES | TGI [1] | TGI [2] | TGI [3] | TGI [4] | TGI [5] | TGI [6] | TGI [7] | TGI [8] | TGI [9] | TGI [10] | TGI [11] | TGI [12] | TGI [13] | TGI [14] | TGI [15] | TGI [16] | TGI [17] | TGI [18] | TGI [19] | TGI [20] |
| --- | --- | --- | --- | --- | --- | --- | --- | --- | --- | --- | --- | --- | --- | --- | --- | --- | --- | --- | --- | --- |
| CCOC(=O)c1nc2ccccc2nc1Oc1cc(OC)cc(OC)c1 | > 100 µM | > 100 µM | > 100 µM | > 100 µM | > 100 µM | > 100 µM | > 100 µM | > 100 µM | > 100 µM | > 100 µM | > 100 µM | > 100 µM | > 100 µM | > 100 µM | > 100 µM | > 100 µM | > 100 µM | > 100 µM | – | – |
| COc1cc([C@@H]2c3cc4c(cc3[C@H](OC3OC5COC(c6ccco6)OC5C(O)C3O)C3COC(=O)[C@@H]32)OCO4)cc(OC)c1OC (some centres undefined) | – | > 100 µM | > 53.6 µM | > 100 µM | > 100 µM | > 100 µM | > 35.9 µM | > 100 µM | – | > 100 µM | > 100 µM | – | > 100 µM | > 100 µM | > 100 µM | > 100 µM | > 100 µM | > 100 µM | > 69.9 µM | > 100 µM |
| CN1CCN(c2cc3[nH]c4cc(O)cc(O)c4c(=O)c3cc2N)CC1 | 4.58 µM | > 100 µM | 45.8 µM | > 100 µM | 49 µM | > 100 µM | 52.7 µM | > 100 µM | 83.4 µM | 49.2 µM | > 100 µM | 3.43 µM | > 100 µM | > 100 µM | > 100 µM | – | 63.6 µM | 3.32 µM | 87 µM | 45.1 µM |
| N=c1sc2ccccc2n1CCS (tested in a mixture with another compound) | 8.45 µM | 57.3 µM | 25.6 µM | > 100 µM | 48.5 µM | 45.8 µM | > 100 µM | 31.8 µM | 41.4 µM | – | 37.6 µM | 59.4 µM | 34.6 µM | > 100 µM | 30.5 µM | 53.6 µM | 37.1 µM | 35.9 µM | 45.8 µM | > 100 µM |
| O=C(CCC(=O)c1ccsc1)c1ccsc1 | > 100 µM | > 100 µM | > 100 µM | > 100 µM | > 100 µM | > 100 µM | > 100 µM | > 100 µM | > 100 µM | > 100 µM | > 100 µM | > 100 µM | > 100 µM | > 100 µM | > 100 µM | > 100 µM | – | > 100 µM | > 100 µM | > 100 µM |
| CN1CCN(Cn2nc(COc3ccccc3Cl)n(/N=C/c3ccc(-c4ccc(Cl)cc4Cl)o3)c2=S)CC1 | 62.1 µM | > 100 µM | 53.3 µM | > 100 µM | 32 µM | > 100 µM | 53.6 µM | 79.3 µM | > 100 µM | 83.8 µM | – | – | 74.3 µM | 55 µM | 34.7 µM | > 100 µM | 42.9 µM | 69.5 µM | 50.4 µM | – |
| COc1ccc2c(-c3csc(-c4c[nH]c5ccc(Br)cc45)n3)c[nH]c2c1 | > 100 µM | > 100 µM | > 100 µM | > 100 µM | 27.9 µM | > 100 µM | 79.3 µM | > 100 µM | > 100 µM | > 100 µM | > 100 µM | > 100 µM | > 100 µM | > 100 µM | > 100 µM | – | > 100 µM | 83.1 µM | > 100 µM | – |
| COCN1C(=O)[C@@H]2CCCN2C(=O)c2cc(OC)c(Cc3ccccc3)cc21 | – | > 100 µM | > 100 µM | > 100 µM | > 100 µM | > 100 µM | > 100 µM | > 100 µM | > 100 µM | – | > 100 µM | > 100 µM | > 100 µM | > 100 µM | > 100 µM | > 100 µM | > 100 µM | > 100 µM | > 100 µM | > 100 µM |
| COC(=O)C(Cc1ccccc1)NC(=O)CSc1nnc(COc2ccc(Cl)cc2)n1-c1ccccc1 (centres undefined) | > 100 µM | 54.6 µM | 58.5 µM | > 100 µM | 43 µM | 26.2 µM | 59 µM | – | 78.6 µM | 73.5 µM | > 100 µM | 48.9 µM | > 100 µM | > 100 µM | 54.6 µM | 63 µM | 53.2 µM | 41.8 µM | – | 56.1 µM |
| COc1ccc2c(c1)/C(=C/c1c(O)[nH]c(=S)[nH]c1=O)C=N2 | > 100 µM | > 100 µM | > 100 µM | > 100 µM | 96.9 µM | > 100 µM | > 100 µM | > 100 µM | > 100 µM | – | > 100 µM | > 100 µM | > 100 µM | > 100 µM | > 100 µM | > 100 µM | > 100 µM | > 100 µM | > 100 µM | 49.9 µM |
| O=C1c2ccccc2-c2nnc3c(c21)Cc1ccccc1C3 | > 10 µM | > 10 µM | > 10 µM | > 10 µM | > 10 µM | – | > 10 µM | > 10 µM | > 10 µM | > 10 µM | > 10 µM | > 10 µM | > 10 µM | > 10 µM | > 10 µM | > 10 µM | > 10 µM | > 10 µM | > 10 µM | > 10 µM |
| C#CCN(Cc1ccc2nc(-c3ccccc3)c(Cl)nc2c1)c1ccc(F)cc1 | 44.6 µM | > 100 µM | > 100 µM | > 100 µM | – | > 100 µM | > 100 µM | > 100 µM | > 100 µM | > 100 µM | > 100 µM | > 100 µM | > 100 µM | > 100 µM | > 100 µM | – | > 100 µM | > 100 µM | > 100 µM | > 100 µM |
